pIC50: −log10 of the molar value.

Consider 10 molecules from patent US8106045B2, “2-morpholino-4-pyrimidone compound” (Mitsubishi Tanabe Pharma Corporation, priority 2004, dated 2012).

The target in this assay is T1, bovine cerebral TPK1 (Bos taurus, UniProt A0A3Q1MT31).
T1 construct: bovine cerebral TPK1; from tissue; host or cells: bovine cerebrum (brain)
T1 sequence (A0A3Q1MT31 1-419): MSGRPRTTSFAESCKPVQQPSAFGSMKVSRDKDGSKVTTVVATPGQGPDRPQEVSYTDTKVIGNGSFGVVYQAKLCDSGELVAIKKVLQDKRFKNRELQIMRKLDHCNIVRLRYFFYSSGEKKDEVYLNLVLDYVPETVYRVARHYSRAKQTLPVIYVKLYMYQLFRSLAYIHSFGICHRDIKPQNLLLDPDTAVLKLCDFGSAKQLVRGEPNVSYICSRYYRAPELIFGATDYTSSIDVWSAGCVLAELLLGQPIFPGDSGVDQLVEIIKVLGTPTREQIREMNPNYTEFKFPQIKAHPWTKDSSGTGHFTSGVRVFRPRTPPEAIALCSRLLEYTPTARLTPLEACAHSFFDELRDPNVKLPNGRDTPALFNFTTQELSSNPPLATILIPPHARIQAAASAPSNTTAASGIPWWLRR
In words: Inhibitory activity against P-GS1 phosphorylation by bovine cerebral TPK1. Type of assay: biochemical. The following applies: 41.7 μM [γ-32P] ATP, 25° C. for 2 hours. The method, then:
Experiment 1: Inhibitory Activity of the Medicament of the Present Invention Against P-GS1 Phosphorylation by Bovine Cerebral TPK1
A mixture containing 100 mM MES-sodium hydroxide (pH 6.5), 1 mM magnesium acetate, 0.5 mM EGTA, 5 mM B-mercaptoethanol, 0.02% Tween 20, 10% glycerol, 12 μg/ml P-GS1, 41.7 μM [γ-^32P] ATP (68 kBq/ml), bovine cerebral TPK1 and a compound shown in Table (a final mixture contained 1.7% DMSO deriving from a solution of a test compound prepared in the presence of 10% DMSO) was used as a reaction system. The phosphorylation was started by adding ATP, and the reaction was conducted at 25° C. for 2 hours, and then stopped by adding 21% perchloric acid on ice cooling. The reaction mixture was centrifuged at 12,000 rpm for 5 minutes and adsorbed on P81 paper (Whatmann), and then the paper was washed four times with 75 mM phosphoric acid, three times with water and once with acetone. The paper was dried, and the residual radioactivity was measured using a liquid scintillation counter.
What is called pIC50 is the IC50 on a negative log10 scale, so that one unit is a factor of ten. The low end stands for a high IC50, the high end for a low IC50. `CN(c1ccc([C@H]2CN(c3nc(-c4ccncn4)cc(=O)n3C)CCO2)cc1)[C@@H]1CCOC1` [Compound No. 091, 2-((2S)-2-(4-(N-methyl-N-((3R)-tetrahydrofuran-3yl)amino)phenyl)morpholin-4-yl)-3-methyl-6-(pyrimidin-4-yl)-3H-pyrimidin-4-one] had a pIC50 of 8.21. Then `Cn1c(N2CCO[C@@H](c3ccc(OCCCN4CCCC4)cc3)C2)nc(-c2ccncn2)cc1=O` [Compound No. 202, 2-((2S)-2-(4-(3-(pyrrolidin-1-yl)propyloxy)phenyl)morpholine-4-yl)-3-methyl-6-(pyrimidin-4-yl)-pyrimidin-4-one], with 9.37; and `Cn1c(N2CCO[C@@H](c3ccc(C(=O)NCCO)cc3)C2)nc(-c2ccncn2)cc1=O` [Compound No. 210, N-(2-hydroxy-ethyl)-4-[(2S)-4-(1-methyl-6-oxo-1,6-dihydro-[4,4′]bipyrimidinyl-2-yl)-morpholin-2-yl]-benzamide], with 8.27; and `CN(C)CC(=O)Nc1ccc([C@H]2CN(c3nc(-c4ccncn4)cc(=O)n3C)CCO2)cc1` [Compound No. 220, N^2,N^2-Dimethyl-N^1-{4-[(2S)-4-(1-methyl-6-oxo-1,6-dihydro-4,4′-bipyrimidin-2-yl)morpholin-2-yl]phenyl}glycinamide], with 9.32. The value for `COC(=O)Nc1ccc([C@H]2CN(c3nc(-c4ccncc4)cc(=O)n3C)CCO2)cc1` [Compound No. 231, Methyl (4-((2S)-4-(3-methyl-4-oxo-6-(pyridin-4-yl)-3H-pyrimidin-2-yl)morpholin-2-yl)-phenyl)carbamate] was 8.24. With `CN(C)C(=O)Nc1ccc([C@H]2CN(c3nc(-c4ccncc4)cc(=O)n3C)CCO2)cc1` [Compound No. 237, 1,1-Dimethyl-3-{4-[4-(1-methyl-6-oxo-4-pyridin-4-yl-1,6-dihydro-pyrimidin-2-yl)-morpholin-2-yl]-phenyl}-urea], the negative logarithm of the IC50 (pIC50) was 8.01. Then `Cn1c(N2CCO[C@@H](c3ccc(N4CCC(N5CCCC5)CC4)cc3)C2)nc(-c2ccncc2)cc1=O` [compound 6], with 8.47. Then `Cn1c(N2CCO[C@@H](c3ccc(Nc4ccncc4)cc3)C2)nc(-c2ccncc2)cc1=O` [compound 50], with 8.32.

`Cn1c(N2CCO[C@@H](c3ccc(NC(=O)c4ccccc4)cc3)C2)nc(-c2ccncc2)cc1=O` [compound 70] gave a pIC50 of 8.29. In turn, `Cn1c(N2CCO[C@@H](c3ccc(NC(=O)CN4CCN(c5ccccc5)CC4)cc3)C2)nc(-c2ccncc2)cc1=O` [compound 100] gave a pIC50 of 8.28.
